This is an account of results in patent US9187496B2 (priority 2009, dated 2015).

pEC50: −log10 of the molar value. Where two headings read alike, the source gives them in different places. Bounds are passed on as bounds.

For one data set, the system named is GS4.1 cells. Description: Cytotoxicity evaluation in GS4.1 cells (Cell Titer 96 AQueous One). The class given is cell-based, human. Conditions: cellular viability. The procedure: For cytotoxicity evaluation, GS4.1 cells were treated with compounds as described above and cellular viability was monitored using the Cell Titer 96 AQueous One Solution Cell Proliferation Assay (Promega). CC50 values were determined from the % cytotoxicity versus concentration data with Tecan Magellan software as described above.

Data set [1] deals with Huh-7 cells containing HCV Con1 subgenomic replicon (GS4.1 cells). Nature of the data set: HCV replicon assay (NS5A ELISA). The class given is cell-based. The procedure: General Procedure: Huh-7 cells containing HCV Con1 subgenomic replicon (GS4.1 cells) were grown in Dulbecco's Modified Eagle Medium (DMEM) supplemented with 10% fetal bovine serum (FBS), 2 mM L-glutamine, 110 mg/L sodium pyruvate, 1× non-essential amino acids, 100 U/mL penicillin-streptomycin, and 0.5 mg/mL G418 (Invitrogen). For dose-response testing, the cells were seeded in 96-well plates at 7.5×10^3 cells/well in a volume of 50 μL, and incubated at 37° C./5% CO2. Three hours after plating, 50 μL of ten 2-fold serial dilutions of compounds (highest concentration, 75 μM) were added, and cell cultures were incubated at 37° C./5% CO2 in the presence of 0.5% DMSO. Alternatively, compounds were tested at a single concentration of 15 μM. In all cases, Huh-7 cells lacking the HCV replicon served as negative control. The cells were incubated in the presence of compounds for 72 hrs after which they were monitored for expression of the NS5A protein by enzyme-linked immunosorbent assay (ELISA). For this, the plates were then fixed for 1 min with acetone/methanol (1:1, v/v), washed twice with phosphate-buffered saline (PBS), 0.1% Tween 20, blocked for 1 hr at room temperature with TNE buffer containing 10% FBS and then incubated for 2 hr at 37° C. with the anti-NS5A mouse monoclonal antibody A-236 (ViroGen) diluted in the same buffer. After washing three times with PBS, 0.1% Tween 20, the cells were incubated 1 hr at 37° C. with anti-mouse immunoglobulin G-peroxidase conjugate in TNE, 10% FBS. After washing as described above, the reaction was developed with O-phenylenediamine (Zymed). The reaction was stopped after 30 min with 2 N H2SO4, and absorbance was read at 492 nm using Sunrise Tecan spectrophotometer. EC50 values were determined from the % inhibition versus concentration data using a sigmoidal non-linear regression analysis based on four parameters with Tecan Magellan software.

Where [2] appears, read: Hepatitis C virus, Huh-7, GS4.1 cells, 72 hrs, NS5A ELISA, read-out: EC50.
Setting [3] is: GS4.1 cells, 72 hrs, NS5A ELISA, read-out: EC50.

Molecule `COC(=O)N[C@H](C(=O)N1CCCC1c1ncc(-c2ccc(-c3csc4c(-c5cnc(C6CCCN6C(=O)[C@@H](NC(=O)OC(C)(C)C)C(C)C)[nH]5)csc34)cc2)[nH]1)C(C)C` (some centres unmarked) [A76] returned a CC50 in the data set with GS4.1 cells above 75 µM. Further, in data set [1] (setting [2]), the pEC50 was above 9.00.
The like results for `COC(=O)N[C@H](C(=O)N1CCC[C@H]1C(=O)Nc1cn2cc(-c3ccc(NC(=O)CNC(=O)[C@H](NC(=O)OC(C)(C)C)c4ccccc4)cc3)sc2n1)C(C)C` [A147] were, in that order, above 75 µM and 7.00 to 8.00.
The like results for `COC(=O)N[C@H](C(=O)N1CCCC1c1ncc(-c2cn3cc(-c4ccc(-c5cnc([C@@H]6CCCN6C(=O)[C@@H](NC(=O)OC)C(C)C)[nH]5)cc4)nc3s2)[nH]1)C(C)C` (some centres unmarked) [A7] were, in that order, above 75 µM and above 9.00.
The like results for `COC(=O)N[C@H](C(=O)N1CCC[C@H]1c1ncc(-c2ccc(-c3cn4cc(NC(=O)[C@@H]5CCCN5C(=O)[C@H](NC(=O)OC)c5ccccc5)nc4s3)cc2)[nH]1)C(C)C` [Compound A30, (S,S,S,R)-[1-(2-{5-[4-(6-{[1-(2-methoxycarbonylamino-2-phenyl-acetyl)-pyrrolidin-2-carbonyl]-amino}-imidazo[2,1-b]thiazol-2-yl)-phenyl]-1H-imidazol-2-yl}-pyrrolidine-1-carbonyl)-2-methyl-propyl]-carbamic acid methyl ester] were, in that order, above 75 µM and above 9.00.
For the molecule `COC(=O)N[C@H](C(=O)N1CCC[C@H]1c1ncc(-c2ccc(-c3cn4cc(NC(=O)[C@@H]5CCCN5C(=O)[C@H](NC(=O)OC(C)C)c5ccccc5)nc4s3)cc2)[nH]1)C(C)C` [A56], in the data set on GS4.1 cells, the CC50 is above 75 µM. For the same molecule, the pEC50 in data set [1] (setting [2]) is above 9.00.
The like results for `COC(=O)N[C@H](C(=O)N1CCC[C@H]1c1ncc(-c2csc3c(-c4cnc([C@@H]5CCCN5C(=O)[C@@H](NC(=O)OC)C(C)C)[nH]4)csc23)[nH]1)C(C)C` [Compound A82, ((S)-1-{(S)-2-[5-(6-{2-[(S)-1-((S)-2-methoxycarbonylamino-3-methyl-butyryl)-pyrrolidin-2-yl]-3H-imidazol-4-yl}-thieno[3,2-b]thiophen-3-yl)-1H-imidazol-2-yl]-pyrrolidine-1-carbonyl}-2-methyl-propyl)-carbamic acid methyl ester] were, in that order, 10 to 75 µM and above 9.00.
In the data set on GS4.1 cells, `COC(=O)N[C@@H](C(=O)N1CCC[C@H]1C(=O)Nc1ccc(-c2cn3cc(NC(=O)[C@@H]4CCCN4C(=O)[C@H](NC(=O)OC)c4ccccc4)nc3s2)cc1)c1ccccc1` [A79] came in with a CC50 above 75 µM. In addition, in data set [1] (setting [3]), the pEC50 was above 9.00.
`COC(=O)N[C@H](C(=O)N1CCC[C@H]1C(=O)Nc1cn2cc(-c3ccc(-c4cnc([C@@H]5CCCN5C(=O)[C@@H](NC(=O)OC)C(C)C)[nH]4)cc3)sc2n1)C(C)C` [Compound A2, (S,S,S,S)-(1-{2-[2-(4-{2-[1-(2-methoxycarbonylamino-3-methyl-butyryl)-pyrrolidin-2-yl]-3H-imidazol-4-yl}-phenyl)-imidazo[2,1-b]thiazol-6-ylcarbamoyl]-pyrrolidine-1-carbonyl}-2-methyl-propyl)-carbamic acid methyl ester] returned a 50% cytotoxic concentration (CC50) in the data set with GS4.1 cells of 10 to 75 µM. Besides, in data set [1] (setting [2]), the pEC50 was 8.00 to 9.00.
Turning to `CC(C)(C)OC(=O)N[C@@H](C(=O)N1CCC[C@H]1C(=O)Nc1cn2cc(C#Cc3ccccc3)sc2n1)c1ccccc1` [Compound A23], the CC50 with GS4.1 cells lay in the range of 10 to 75 µM. In addition, the negative-log EC50 (pEC50) in data set [1] (setting [2]) was below 7.00.
Consider `COC(=O)N[C@H](C(=O)N1CCCC1c1ncc(-c2ccc(-c3cc4sc(Br)cc4s3)cc2)[nH]1)C(C)C` (some centres unmarked) [A168], for which, in the data set on GS4.1 cells, the CC50 was 10 to 75 µM. The pEC50 in data set [1] (setting [2]) was 7.00 to 8.00.
In the data set on GS4.1 cells, `COC(=O)N[C@H](C(=O)N1CCCC1c1ncc(-c2ccc(-c3csc4cc(C(=O)OC)[nH]c34)cc2)[nH]1)C(C)C` (some centres unmarked) [A164] had a 50% cytotoxic concentration (CC50) of 10 to 75 µM. The pEC50 in data set [1] (setting [2]) was 7.00 to 8.00.
As to `COC(=O)N[C@H](C(=O)N1CCC[C@H]1c1ncc(-c2ccc(-c3cn4cc(NC(=O)CNC(=O)[C@H](NC(=O)OC(C)(C)C)c5ccccc5)nc4s3)cc2)[nH]1)C(C)C` [A148], in the data set with GS4.1 cells, the 50% cytotoxic concentration (CC50) is above 75 µM. Besides, the pEC50 in data set [1] (setting [2]) was 8.00 to 9.00.
Regarding `CC(C)(C)OC(=O)Nc1ccc(-c2cn3cc(NC(=O)[C@@H]4CCCN4C(=O)[C@H](NC(=O)OC(C)(C)C)c4ccccc4)nc3s2)cc1` [A29], the CC50 in the data set on GS4.1 cells lay in the range of 10 to 75 µM. The negative-log EC50 (pEC50) in data set [1] (setting [2]) was below 7.00.
Regarding `COC(=O)N[C@H](C(=O)N1CCCC1c1ncc(-c2ccc(-c3csc4c(-c5cnc(C6CCCN6C(=O)OC(C)(C)C)[nH]5)csc34)cc2)[nH]1)C(C)C` (some centres unmarked) [A151], in the data set on GS4.1 cells, the half-maximal cytotoxic concentration (CC50) is 10 to 75 µM. In addition, the pEC50 in data set [1] (setting [3]) was above 9.00.
The molecule `CC(C)(C)OC(=O)N[C@@H](C(=O)N1CCOC[C@H]1C(=O)Nc1cn2cc(-c3ccccc3)sc2n1)c1ccccc1` [Compound A22] gave a CC50 in the data set with GS4.1 cells above 75 µM. Also, the pEC50 in data set [1] (setting [2]) was below 7.00.
The like results for `COC(=O)N[C@H](C(=O)N1CCCC1c1nc(-c2ccc(-c3cc4sc(-c5ccc(-c6cnc([C@@H]7CCCN7C(=O)[C@@H](NC(=O)OC)C(C)C)[nH]6)cc5)cc4s3)cc2)c[nH]1)C(C)C` (some centres unmarked) [A159] were, in that order, above 75 µM and above 9.00.
`COC(=O)N[C@H](C(=O)N1CCCC1c1nc(-c2ccc(-c3c(C(=O)OC)[nH]c4c(-c5ccc(-c6cnc(C7CCCN7C(=O)[C@@H](NC(=O)OC)C(C)C)[nH]6)cc5)csc34)cc2)c[nH]1)C(C)C` (some centres unmarked) [Compound A163]: the CC50 in the data set with GS4.1 cells was above 75 µM. Moreover, the pEC50 in data set [1] (setting [2]) is above 9.00.
For `COC(=O)N[C@H](C(=O)N1CCCC1c1cc(-c2ccc(-c3csc4c(-c5ccc(-c6cnc(C7CCCN7C(=O)[C@@H](NC(=O)OC)C(C)C)[nH]6)cc5)csc34)cc2)[nH]n1)C(C)C` (some centres unmarked) [A87] the same measures were above 75 µM and above 9.00.
For `COC(=O)N[C@H](C(=O)N1CCCC1c1ncc(-c2ccc(-c3ccc(-c4nc5sccn5c4Cl)cc3)cc2)[nH]1)C(C)C` (some centres unmarked) [A154] the same measures were 10 to 75 µM and 7.00 to 8.00.
For `CC(C)(C)OC(=O)N1CCCC1c1ncc(-c2cn3cc(-c4ccc(Cl)cc4)sc3n2)[nH]1` (centres unmarked) [A152] the same measures were 10 to 75 µM and below 7.00.
`COC(=O)N[C@H](C(=O)N1CCCC1c1nc(-c2ccc(-c3sc4cc(-c5ccc(-c6cnc([C@@H]7CCCN7C(=O)[C@@H](NC(=O)OC)C(C)C)[nH]6)cc5)sc4c3-c3ccc(-c4cnc(C5CCCN5C(=O)[C@@H](NC(=O)OC)C(C)C)[nH]4)cc3)cc2)c[nH]1)C(C)C` (some centres unmarked) [A105] had a CC50 in the data set with GS4.1 cells of 10 to 75 µM. The negative-log EC50 (pEC50) in data set [1] (Hepatitis C virus, Huh-7, 72 h) was 7.00 to 8.00.
For the molecule `COC(=O)N[C@H](C(=O)N1CCCC1c1ncc(-c2ccc(-c3csc4c(-c5ccccc5)csc34)cc2)[nH]1)C(C)C` (some centres unmarked) [A103], the half-maximal cytotoxic concentration (CC50) in the data set with GS4.1 cells lay within 10 to 75 µM. The pEC50 in data set [1] (setting [2]) was 8.00 to 9.00.
`COC(=O)N[C@H](C(=O)N1CCCC1c1ncc(-c2ccc(-c3cn4c(-c5ccccc5)csc4n3)cc2)[nH]1)C(C)C` (some centres unmarked) [A162]: the CC50 with GS4.1 cells fell in the range of 10 to 75 µM. Besides, the pEC50 in data set [1] (setting [2]) was 8.00 to 9.00.
Consider `COC(=O)N[C@H](C(=O)N1CCCC1c1ncc(-c2ccc(-c3cn4ccsc4n3)cc2)[nH]1)C(C)C` (some centres unmarked) [A160], for which the CC50 with GS4.1 cells is above 75 µM. In addition, the pEC50 in data set [1] (setting [2]) is 7.00 to 8.00.
The like results for `COC(=O)N[C@H](C(=O)N1CCC[C@H]1c1ncc(-c2ccc(-c3cn4cc(NC(=O)C5CCCN5C(=O)CNC(=O)OC(C)(C)C)nc4s3)cc2)[nH]1)C(C)C` (some centres unmarked) [A31] were, in that order, above 75 µM and 7.00 to 8.00.
Consider `CC(C)(C)OC(=O)N[C@@H](C(=O)N1CCC[C@H]1C(=O)Nc1cn2cc(-c3ccccc3)sc2n1)c1ccccc1` [A27], for which the 50% cytotoxic concentration (CC50) in the data set on GS4.1 cells was above 75 µM. Besides, the pEC50 in data set [1] (setting [2]) was 7.00 to 8.00.
`CC(C)(C)OC(=O)N1CCCC1c1ncc(-c2ccc(-c3nc4sccn4c3Cl)cc2)[nH]1` (centres unmarked) [A161] gave a CC50 in the data set with GS4.1 cells above 75 µM. In addition, in data set [1] (setting [2]), the pEC50 was below 7.00.
In turn, `COC(=O)N[C@H](C(=O)N1CCC[C@H]1C(=O)Nc1ccc(-c2cn3cc(NC(=O)C4CCCN4C(=O)[C@@H](NC(=O)OC)C(C)C)nc3s2)cc1)c1ccccc1` (some centres unmarked) [A32] displayed a CC50 with GS4.1 cells above 75 µM. Also, the pEC50 in data set [1] (setting [2]) was above 9.00.
For `COC(=O)N[C@H](C(=O)N1CCCC1c1nc(-c2ccc(-c3cn4cc(-c5ccc(-c6cnc([C@@H]7CCCN7C(=O)[C@@H](NC(=O)OC)C(C)C)[nH]6)cc5)sc4n3)cc2)c[nH]1)C(C)C` (some centres unmarked) [A93] the same measures were above 75 µM and above 9.00.
Turning to `COC(=O)N[C@H](C(=O)N1CCCC1c1ncc(-c2cc3sc(-c4ncc(-c5c[nH]c([C@@H]6CCCN6C(=O)[C@@H](NC(=O)OC)C(C)C)n5)s4)cc3s2)[nH]1)C(C)C` (some centres unmarked) [A130], in the data set with GS4.1 cells, the CC50 is above 75 µM. Further, the pEC50 in data set [1] (setting [2]) was above 9.00.
For `COC(=O)N[C@H](C(=O)N1CCC[C@H]1c1cc(-c2ccc(-c3cn4cc(NC(=O)[C@@H]5CCCN5C(=O)[C@H](NC(=O)OC(C)C)c5ccccc5)nc4s3)cc2)[nH]n1)C(C)C` [A156] the same measures were above 75 µM and above 9.00.
